Earlier results as cited in US20230025286A1, “PHARMACEUTICAL COMPOSITION COMPRISING ELTROMBOPAG BIS(MONOETHANOLAMINE)” (SYNTHON B.V., priority 2019, published 2023).

Assays:
[1] = background statement, no method or value given
[2] = background statement, no method or value given; remark: listed apart in the source

solubility [1]: low
permeability [2]: medium
Compound: CC1=NN(c2ccc(C)c(C)c2)C(=O)/C1=N\Nc1cccc(-c2cccc(C(=O)O)c2)c1O.NCCO.NCCO [Eltrombopag bis(monoethanolamine), 3′-{(2Z)-2-[1-(3,4-dimethylphenyl)-3-methyl-5-oxo-1,5-dihydro-4H-pyrazol-4-ylidene]hydrazino}-2′-hydroxy-3-biphenylcarboxylic acid bis(monoethanolamine)]
